Test results from patent US4325970A, “15-Acetyl-prostaglandins” (Hoffmann-La Roche Inc., priority 1980, dated 1982).
Like-named read-outs stand apart in the source and are kept apart here.

Legend:
[1] = system: gastric microbleeding induced by aspirin; assay type: in vivo, rat; conditions: for blood lost after Compound A in combination with aspirin: intragastric, one hour
Source text: To study the effects of Compound A on gastric microbleeding induced by aspirin, a technique was developed based on that used by Menasse-Gdynia and Krupp, Toxicol, Appl. Pharmacol. 29, 389-396. The technique involves the microsurgical preparation of rats so as to isolate the stomach in an accessible, perfused system and the utilization of chromium-51-labelled red blood cells (^51 Cr-RBC) as a convenient handle for the assessment of bleeding from drug-induced gastric microlesions.
Rats were microsurgically implanted with a cannula in the vena cava (for the injection of ^51 Cr-RBC), a cannula in the forestomach (for constant infusion of tap water) and a cannula in the duodenum at the pyloric sphincter (for collection ot total gastric effluent). After a 30 min wash with tap water infused at 5.5 m/hr, each animal was administered either aspirin (100 mg/kg) or aspirin in combination with Compound A. Ease dose was administered intragastrically in 1 ml 40% polyethylene glycol (having molecular weight of 400) vehicle and allowed to remain in the stomach for 15 min. Simultaneously 0.9 ml ^51 Cr-RBC (3×10^6) was administered through the vena cava. Gastric effluent was collected every 5 min for a total of […]. Radioactivity was determined in a gamma counter. The results are expressed as microliters of whole blood lost during the 60 min experiments, based on the following formula: [formula]

gastric secretion = assay: gastric secretory depressant test in the unanesthetized rat with acute gastric fistula (acid concentration, acid output, pH); assay type: in vivo; conditions: for % Inhibition, acid concentration (S.E.M.) / % Inhibition, acid output (S.E.M.): 10 μg/kg b.w. I.G.
Experimental: were tested as gastric secretory depressants in the unanesthesized rat with acute gastric fistula by the following procedure:
During this baseline period, the pH of the secretory flow was about 1.5 for each animal. Individual samples were collected at 10-minute intervals during this baseline period to monitor the pH. The compounds dissolved in polyethylene glycol-400 were administered intragastrically (I.G.) after this baseline period and samples were continuously collected for up to 180 minutes. The samples of gastric contents were subsequently assayed for volume, total acid concentration (μEq/ml) and total acid output for 10 minutes (μEq/10 minutes).
In addition to intragastric (I.G.) dosages, the activity of these compounds was tested for intraduodenal (I.D.) and intravenous administration (I.V.) to unanesthetized rats with acute gastric fistula as described above. For I.D. administration, the compounds were dissolved in polyethylene glycol-400. On the other hand, a trimethylolnitro-methane/ethanol solution was used for I.V. dosing. […] With this dose and route of administration of Compound A, a pronounced effect on pH was seen, an average increase of 3.1 pH units over 3 hours post administration. With the I.G. dose of Compound A of 5 μg/Kg b.w., an average increase of 1.6 pH units occurred. […] The antisecretory effect of Compound A seen after I.V. administration (10 μg/Kg b.w.) was low, amounting to about 1/4 to 1/5 that seen following I.G. dosage of Compound A. With the I.V. route of administration at this dose of Compound A (10 μg/Kg b.w.) effect on pH was minimal, 1/10 to 1/20 that seen after I.G. administration of an identical dose of Compound A.

[2] = system: gastric secretion stimulated by histamine; assay: Heidenhain pouch dog test, histamine-stimulated gastric secretion; assay type: in vivo, dog (mongrel)
Experimental: Compound A was next tested at a dose level which would cause a definite and reproducible pharmacological effect.
The Heindenhain pouch test involved collecting gastric juice from the denervated (Heidenhain) gastric pouches of mongrel dogs. This collection was accomplished by gravity drainage, using a specially manufactured titanium cannula. Gastric secretion was stimulated by intravenous infusion of a saline solution of histamine hydrochloride, 20 μg/kg/hr, injected at a rate of 1 ml/min. This submaximal stimulation elicited acid secretion approximately 30% of maximal, without the tachycardia commonly observed with higher doses of histamine. Samples of gastric juice were collected at 15-min intervals. Compound A was administered orally via a 1/4 oz. hard gelatin capsule. The animals were dosed 90 min after the start of histamine infusion and the test continued for 9 hours post-drug administration. The dogs were concious and stood quietly in Pavlov slings during the experiments. Sample volume was measured, and pH, acid concentration (mEq/L), acid output (mEq/15-min periods), as well as pepsin concentration and output were determined. Vital signs were monitored throughout the test and kennel observations continued for 24 hr.
The indexes chosen to assess drug efficacy were acid concentration and acid output. These parameters were expressed as a percentage of the average of the three 15-min values prior to dosage. […] […] Values of pH increased from a control average of 1.0 to a maximum of 2.0 six hours post drug. Analysis of control data for this group of Heindenhain-pouch dogs indicated no significant decrease in gastric juice volumes from control levels during these extended studies. In these control animals, pH values averaged 0.9 throughout the entire experiment. Therefore, no significant decreases in acid concentration or output would be expected in the control results.

[3] = Compound A 10 μg/kg + aspirin 100 mg/kg
[4] = 20 minutes after administration
[5] = 30 minutes after administration
[6] = 40 minutes after administration
[7] = 50 minutes after administration
[8] = 60 minutes after administration
[9] = 70 minutes after administration
[10] = 80 minutes after administration
[11] = 90 minutes after administration
[12] = 100 minutes after administration
[13] = 110 minutes after administration
[14] = 120 minutes after administration
[15] = 130 minutes after administration
[16] = 140 minutes after administration
[17] = 150 minutes after administration
[18] = 160 minutes after administration
[19] = 170 minutes after administration
[20] = 180 minutes after administration

## CCCCC(C)(C)[C@@H](/C=C/C1[C@H](C)CC(=O)[C@@H]1C/C=C\CCCC(=O)O)OC(C)=O (stereo in doubt) [Compound A, (8R,11R,12S,15R,5Z,13E)-15-acetyloxy-11,16,16-trimethyl-9-oxoprosta-5,13-dien-1-oic acid]
[1]; Compound A 1.25 μg/kg + aspirin 100 mg/kg
  blood lost after Compound A in combination with aspirin: 178 µL
[1]; Compound A 2.5 μg/kg + aspirin 100 mg/kg
  blood lost after Compound A in combination with aspirin: 56 µL
[1]; [3]
  prevention of aspirin-induced microbleeding: complete prevention
  blood lost after Compound A in combination with aspirin: 0 µL
[1]; Compound A 1.25, 2.5 or 10 μg/kg + aspirin 100 mg/kg
  effect on aspirin-induced bleeding: reduced or prevented bleeding in a dose-dependent manner
Gastric secretion; 5 μg/Kg I.G.
  duration of action: 110 min
Gastric secretion; 5 μg/Kg I.G. vs 10 μg/Kg I.G.
  response in pH relative to that seen with the 10 μg/Kg b.w. dose of Compound A: about 50%
Gastric secretion; 5 μg/Kg b.w. I.G.
  average increase of pH: 1.6 pH units
  effect on pH compared with 10 μg/Kg I.G. of Compound B: essentially equivalent to that of the 10 μg/Kg I.G. of Compound B
Gastric secretion; 10 μg/Kg I.G.
  duration of action: 180 min
Gastric secretion; 10 μg/Kg b.w. I.D.
  effect on acid concentration and output compared with I.G. dosage: no different to the I.G. dosage of Compound A
  effect on pH compared with I.G. route: much lower than by the I.G. route
Gastric secretion; 10 μg/Kg b.w. I.G. (printed 10 g/Kg), over 3 hours post administration
  average increase of pH: 3.1 pH units
Gastric secretion; 10 μg/Kg b.w. I.V.
  antisecretory effect: low
  effect on pH: minimal
Gastric secretion; [4]
  % Inhibition, acid concentration (S.E.M.): 34 (16) %
  % Inhibition, acid output (S.E.M.): 39 (14) %
Gastric secretion; [5]
  % Inhibition, acid concentration (S.E.M.): 91 (9) %
  % Inhibition, acid output (S.E.M.): 91 (9) %
Gastric secretion; [6]
  % Inhibition, acid concentration (S.E.M.): 70 (14) %
  % Inhibition, acid output (S.E.M.): 69 (17) %
Gastric secretion; [7]
  % Inhibition, acid concentration (S.E.M.): 50 (17) %
  % Inhibition, acid output (S.E.M.): 43 (20) %
Gastric secretion; [8]
  % Inhibition, acid concentration (S.E.M.): 67 (21) %
  % Inhibition, acid output (S.E.M.): 73 (17) %
Gastric secretion; [9]
  % Inhibition, acid concentration (S.E.M.): 67 (21) %
  % Inhibition, acid output (S.E.M.): 74 (17) %
Gastric secretion; [10]
  % Inhibition, acid concentration (S.E.M.): 67 (21) %
  % Inhibition, acid output (S.E.M.): 79 (16) %
Gastric secretion; [11]
  % Inhibition, acid concentration (S.E.M.): 80 (20) %
  % Inhibition, acid output (S.E.M.): 80 (20) %
Gastric secretion; [12]
  % Inhibition, acid concentration (S.E.M.): 67 (20) %
  % Inhibition, acid output (S.E.M.): 60 (25) %
Gastric secretion; [13]
  % Inhibition, acid concentration (S.E.M.): 60 (24) %
  % Inhibition, acid output (S.E.M.): 68 (20) %
Gastric secretion; [14]
  % Inhibition, acid concentration (S.E.M.): 67 (20) %
  % Inhibition, acid output (S.E.M.): 72 (20) %
Gastric secretion; [15]
  % Inhibition, acid concentration (S.E.M.): 80 (19) %
  % Inhibition, acid output (S.E.M.): 80 (20) %
Gastric secretion; [16]
  % Inhibition, acid concentration (S.E.M.): 100 (0) %
  % Inhibition, acid output (S.E.M.): 100 (0) %
Gastric secretion; [17]
  % Inhibition, acid concentration (S.E.M.): 72 (17) %
  % Inhibition, acid output (S.E.M.): 92 (5) %
Gastric secretion; [18]
  % Inhibition, acid concentration (S.E.M.): 80 (16) %
  % Inhibition, acid output (S.E.M.): 82 (18) %
Gastric secretion; [19]
  % Inhibition, acid concentration (S.E.M.): 80 (15) %
  % Inhibition, acid output (S.E.M.): 80 (20) %
Gastric secretion; [20]
  % Inhibition, acid concentration (S.E.M.): 67 (33) %
  % Inhibition, acid output (S.E.M.): 71 (29) %
Gastric secretion; I.G. dose 10 g/Kg [sic] b.w.
  antisecretory effects: pronounced antisecretory effects
  duration of antisecretory effect: at least 3 hours
  duration of antisecretory effect compared with Compound B: significantly longer than that seen with Compound B
[2]; 100 μg/kg p.o.
  activity: potential for significant activity
[2]; 100 μg/kg p.o., six dogs
  dogs with 50% or better acid reduction for more than two hours: Three of the six dogs
[2]; 100 μg/kg p.o., in three of the six dogs, for more than two hours post dosage
  acid reduction: ≥ 50%
[2]; 100 μg/kg p.o., three of the six dogs
  duration of 50% or better acid reduction: more than two hours
[2]; 250 μg/kg oral
  activity compared with 500 μg/kg level: almost as good as that found at the 500 μ/kg level
[2]; 500 μg/kg oral
  antisecretory activity: marked antisecretory activity of long duration
  duration of >60% inhibition of acid output: > 9 h
  start of >60% inhibition of acid output after administration: 45 min
[2]; 500 μg/kg oral, beginning 45 minutes after administration, longer than 9 hours, mean=0.38 mEq/15 minutes
  inhibition of acid output: > 60%
[2]; 500 μg/kg oral, constant between 4 and 5 3/4 hours post drug, control mean=136 mg/L as printed
  reduction of the acid concentration from control values: ≥ 50%
[2]; 500 μg/kg oral, six hours post drug, from a control average of 1.0
  maximum pH of gastric juice: 2.0
